Assay results from ChEMBL document CHEMBL1201861, “Genomics of Drug Sensitity in Cancer screening data, Wellcome Trust Sanger Institute”.

Tests used:
Test in all cases: cells
Capan-2 = type: functional, cell-based; conditions: Homo sapiens;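 also: Capan-2 cell growth inhibition, read out with a viability assay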
Description: SANGER: Inhibition of human Capan-2 cell growth in a cell viability assay.

ChaGo-K-1 = type: functional, cell-based; conditions: Homo sapiens;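 also: growth inhibition of ChaGo-K-1 cells, read out with a cell viability assay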
Description: SANGER: Inhibition of human ChaGo-K-1 cell growth in a cell viability assay.

D-336MG = type: functional, cell-based; conditions: Homo sapiens
Description: SANGER: Inhibition of human D-336MG cell growth in a cell viability assay.

DoTc2-4510 = type: functional, cell-based; conditions: Homo sapiens
FaDu = type: functional, cell-based; conditions: Homo sapiens;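 also: cell viability readout of growth inhibition in FaDu cells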
Description: SANGER: Inhibition of human FADU cell growth in a cell viability assay.

G-361 = type: functional, cell-based; conditions: Homo sapiens
GAMG = type: functional, cell-based; conditions: Homo sapiens;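 also: cell growth inhibition measured by a viability assay in the GAMG human cell line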
Description: SANGER: Inhibition of human GAMG cell growth in a cell viability assay.

H4 = type: functional, cell-based; conditions: Homo sapiens
Description: SANGER: Inhibition of human H4 cell growth in a cell viability assay.

HCC1806 = type: functional, cell-based; conditions: Homo sapiens;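 also: growth inhibition of the cancer cell line, determined with a cell viability assay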
Description: SANGER: Inhibition of human HCC1806 cell growth in a cell viability assay.

HCC38 = type: functional, cell-based; conditions: Homo sapiens;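 also: cell viability assay on the human HCC38 cell line, with IC50 marking the concentration that inhibits cell growth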
Description: SANGER: Inhibition of human HCC38 cell growth in a cell viability assay.

HSC-2 = type: functional, cell-based; conditions: Homo sapiens;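 also: growth inhibition of human HSC-2 cells, read out by a cell viability assay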
Description: SANGER: Inhibition of human HSC-2 cell growth in a cell viability assay.

HT1197 = type: functional, cell-based, HT-1197; conditions: Homo sapiens
Description: SANGER: Inhibition of human HT-1197 cell growth in a cell viability assay.

HT-29 = type: functional, cell-based; conditions: Homo sapiens;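 also: growth inhibition of human HT-29 cells, read out by a cell viability assay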
Description: SANGER: Inhibition of human HT-29 cell growth in a cell viability assay.

Huh-7 = type: functional, cell-based; conditions: Homo sapiens;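 also: HuH-7 cell growth inhibition, read out with a cell viability assay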
Description: SANGER: Inhibition of human HuH-7 cell growth in a cell viability assay.

HuO9 = type: functional, cell-based; conditions: Homo sapiens;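 also: growth inhibition of HuO9 cells, read out with a cell viability assay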
Description: SANGER: Inhibition of human HuO9 cell growth in a cell viability assay.

KYSE-180 = type: functional, cell-based; conditions: Homo sapiens;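 also: growth inhibition of KYSE-180 cells, read out with a cell viability assay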
Description: SANGER: Inhibition of human KYSE-180 cell growth in a cell viability assay.

LCLC-103H cell line = type: functional, cell-based; conditions: Homo sapiens
Description: SANGER: Inhibition of human LCLC-103H cell growth in a cell viability assay.

LoVo = type: functional, cell-based; conditions: Homo sapiens;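 also: growth inhibition of human LoVo cells, read out with a cell viability assay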
Description: SANGER: Inhibition of human LoVo cell growth in a cell viability assay.

M14 = type: functional, cell-based; conditions: Homo sapiens;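 also: growth inhibition of M14 cells, read out with a cell viability assay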
Description: SANGER: Inhibition of human M14 cell growth in a cell viability assay.

MDA-MB-175-VII = type: functional, cell-based; conditions: Homo sapiens
MEL-JUSO = type: functional, cell-based; conditions: Homo sapiens;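 also: growth inhibition of human MEL-JUSO cells, read out with a cell viability assay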
Description: SANGER: Inhibition of human MEL-JUSO cell growth in a cell viability assay.

MKN-28 = type: functional, cell-based; conditions: Homo sapiens;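 also: cell viability assay read-out, IC50 reflects suppression of growth of human MKN-28 cells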
Description: SANGER: Inhibition of human MKN28 cell growth in a cell viability assay.

MKN-7 = type: functional, cell-based; conditions: Homo sapiens;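 also: growth inhibition of MKN-7 cells, read out with a cell viability assay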
Description: SANGER: Inhibition of human MKN7 cell growth in a cell viability assay.

NB7 = type: functional, cell-based; conditions: Homo sapiens;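 also: growth inhibition of NB7 cells, read out with a cell viability assay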
Description: SANGER: Inhibition of human NB7 cell growth in a cell viability assay.

NCI-H1755 = type: functional, cell-based; conditions: Homo sapiens;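 also: cell viability readout used to measure growth inhibition of NCI-H1755 cells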
Description: SANGER: Inhibition of human NCI-H1755 cell growth in a cell viability assay.

NCI-H1793 = type: functional, cell-based; conditions: Homo sapiens;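 also: cell growth inhibition, read out by a cell viability assay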
Description: SANGER: Inhibition of human NCI-H1793 cell growth in a cell viability assay.

NCI-H441 = type: functional, cell-based; conditions: Homo sapiens;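 also: growth inhibition of NCI-H441 cells, read out with a cell viability assay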
Description: SANGER: Inhibition of human NCI-H441 cell growth in a cell viability assay.

NUGC-3 = type: functional, cell-based; conditions: Homo sapiens;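 also: growth inhibition of human NUGC-3 cells, read out with a cell viability assay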
Description: SANGER: Inhibition of human NUGC-3 cell growth in a cell viability assay.

Panc1005 = type: functional, cell-based; conditions: Homo sapiens;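 also: growth inhibition of human PANC-10-05 cells, measured by a cell viability assay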
Description: SANGER: Inhibition of human PANC-10-05 cell growth in a cell viability assay.

PC-3 = type: functional, cell-based; conditions: Homo sapiens;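 also: cell viability assay measuring growth inhibition of PC-3 cells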
Description: SANGER: Inhibition of human PC-3 cell growth in a cell viability assay.

PFSK-1 = type: functional, cell-based; conditions: Homo sapiens;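 also: cell viability assay measuring how strongly compounds suppress growth of human PFSK-1 cells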
Description: SANGER: Inhibition of human PFSK-1 cell growth in a cell viability assay.

RT-112 = type: functional, cell-based; conditions: Homo sapiens
Description: SANGER: Inhibition of human RT-112 cell growth in a cell viability assay.

SAS = type: functional, cell-based; conditions: Homo sapiens;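 also: growth inhibition of SAS cells, read out with a cell viability assay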
Description: SANGER: Inhibition of human SAS cell growth in a cell viability assay.

SCC-9 = type: functional, cell-based; conditions: Homo sapiens;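 also: Read-out is a cell viability assay, with values giving inhibition of cell growth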
Description: SANGER: Inhibition of human SCC-9 cell growth in a cell viability assay.

SK-LU-1 = type: functional, cell-based; conditions: Homo sapiens;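 also: cell viability assay measuring growth inhibition of human SK-LU-1 cells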
Description: SANGER: Inhibition of human SK-LU-1 cell growth in a cell viability assay.

SK-MEL3 = type: functional, cell-based, SK-MEL-3; conditions: Homo sapiens;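 also: growth inhibition of human SK-MEL-3 cells, read out with a cell viability assay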
Description: SANGER: Inhibition of human SK-MEL-3 cell growth in a cell viability assay.

SW1783 = type: functional, cell-based; conditions: Homo sapiens;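 also: cell growth inhibition measured with a viability assay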
Description: SANGER: Inhibition of human SW1783 cell growth in a cell viability assay.

SW837 = type: functional, cell-based; conditions: Homo sapiens;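 also: growth inhibition of SW837 cells, determined with a cell viability assay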
Description: SANGER: Inhibition of human SW837 cell growth in a cell viability assay.

T47D = type: functional, cell-based; conditions: Homo sapiens;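 also: growth inhibition of human T47D cells, measured with a cell viability assay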
Description: SANGER: Inhibition of human T47D cell growth in a cell viability assay.

CWR22R = type: functional, cell-based; conditions: Homo sapiens, 22Rv1;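 also: growth inhibition of 22Rv1 cells, read out with a cell viability assay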
Description: SANGER: Inhibition of human 22RV1 cell growth in a cell viability assay.

5637 = type: functional, cell-based; conditions: Homo sapiens
Description: SANGER: Inhibition of human 5637 cell growth in a cell viability assay.

A-431 = type: functional, cell-based; conditions: Homo sapiens;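 also: growth inhibition of A-431 cells, determined with a cell viability read-out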
Description: SANGER: Inhibition of human A431 cell growth in a cell viability assay.

A673 = type: functional, cell-based; conditions: Homo sapiens;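 also: growth inhibition of human A673 cells, read out through a cell viability assay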
Description: SANGER: Inhibition of human A673 cell growth in a cell viability assay.

ACHN = type: functional, cell-based; conditions: Homo sapiens;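 also: cell viability read-out used to gauge how strongly growth of human ACHN cells is suppressed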
Description: SANGER: Inhibition of human ACHN cell growth in a cell viability assay.

ASPC1 = type: functional, cell-based; conditions: Homo sapiens;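 also: growth inhibition of AsPC-1 cells, read out with a cell viability assay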
Description: SANGER: Inhibition of human AsPC-1 cell growth in a cell viability assay.

BCPAP = type: functional, cell-based; conditions: Homo sapiens;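 also: growth inhibition of BCPAP cells, read out in a cell viability assay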
Description: SANGER: Inhibition of human BCPAP cell growth in a cell viability assay.

BHT-101 = type: functional, cell-based; conditions: Homo sapiens
Description: SANGER: Inhibition of human BHT-101 cell growth in a cell viability assay.

C-33-A = type: functional, cell-based; conditions: Homo sapiens;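 also: cell viability assay measuring growth inhibition of C-33-A cells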
Description: SANGER: Inhibition of human C-33-A cell growth in a cell viability assay.

C3A = type: functional, cell-based; conditions: Homo sapiens;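 also: growth inhibition of C3A human cells, quantified with a cell viability readout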
Description: SANGER: Inhibition of human C3A cell growth in a cell viability assay.

CAL-33 = type: functional, cell-based; conditions: Homo sapiens;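 also: growth inhibition of CAL-33 cells, read out with a cell viability assay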
Description: SANGER: Inhibition of human CAL-33 cell growth in a cell viability assay.

YKG-1 = type: functional, cell-based; conditions: Homo sapiens;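 also: cell growth inhibition, read out with a viability assay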
Description: SANGER: Inhibition of human YKG-1 cell growth in a cell viability assay.

Compound: CC[C@]1(O)C[C@@H]2CN(CCc3c([nH]c4ccccc34)[C@@](C(=O)OC)(c3cc4c(cc3OC)N(C)[C@H]3[C@@](O)(C(=O)OC)[C@H](OC(C)=O)[C@]5(CC)C=CCN6CC[C@]43[C@@H]65)C2)C1 [VINBLASTINE]
- IC50 (Capan-2): > 100 nM
- IC50 (ChaGo-K-1): 1.01 nM
- IC50 (D-336MG): 7.25 nM
- IC50 (DoTc2-4510): 16.5 nM
- IC50 (FaDu): 20 nM
- IC50 (G-361): > 100 nM
- IC50 (GAMG): 19.4 nM
- IC50 (H4): 5.84 nM
- IC50 (HCC1806): 0.63 nM
- IC50 (HCC38): 58.4 nM
- IC50 (HSC-2): 20.2 nM
- IC50 (HT1197): 99.8 nM
- IC50 (HT-29): 45.9 nM
- IC50 (Huh-7): 87.7 nM
- IC50 (HuO9): 12.6 nM
- IC50 (KYSE-180): 6.39 nM
- IC50 (LCLC-103H cell line): 1.5 nM
- IC50 (LoVo): 6.03 nM
- IC50 (M14): 3.19 nM
- IC50 (MDA-MB-175-VII): > 100 nM
- IC50 (MEL-JUSO): 17.5 nM
- IC50 (MKN-28): 2.7 nM
- IC50 (MKN-7): 76.7 nM
- IC50 (NB7): > 100 nM
- IC50 (NCI-H1755): 19.4 nM
- IC50 (NCI-H1793): 29.6 nM
- IC50 (NCI-H441): > 100 nM
- IC50 (NUGC-3): 3.46 nM
- IC50 (Panc1005): 42.8 nM
- IC50 (PC-3): 33.4 nM
- IC50 (PFSK-1): 4.97 nM
- IC50 (RT-112): 2.71 nM
- IC50 (SAS): 28.1 nM
- IC50 (SCC-9): 10.7 nM
- IC50 (SK-LU-1): 18.7 nM
- IC50 (SK-MEL3): > 100 nM
- IC50 (SW1783): 85.5 nM
- IC50 (SW837): > 100 nM
- IC50 (T47D): 7.71 nM
- IC50 (CWR22R): 9.82 nM
- IC50 5637: 0.951 nM
- IC50 (A-431): > 100 nM
- IC50 (A673): 6.88 nM
- IC50 (ACHN): 59 nM
- IC50 (ASPC1): 13.2 nM
- IC50 (BCPAP): 2.33 nM
- IC50 (BHT-101): 31.4 nM
- IC50 (C-33-A): 12.7 nM
- IC50 (C3A): > 100 nM
- IC50 (CAL-33): 6.18 nM
- IC50 (YKG-1): 5.53 nM
